Assay results: patent US20180049995A1, “HIF-2-ALPHA INHIBITOR POLYMORPHS” (PELOTON THERAPEUTICS, INC., priority 2015, published 2018)
≈ marks a conversion by molar mass, not a printed value. Read-outs that look alike come from different tables or passages of the source.

Tests used:
Type in all cases: physicochemical
[1] = 7-Day stability study (XRPD and HPLC after storage)
Protocol: The stability of Forms A and B were measured following storage for 7-days at ambient, 40° C./75% RH and 80° C. About 15 mg of Forms A and B were individually placed in each of 3 vials and stored uncapped for 7 days under the following conditions; ambient, 40° C./75% RH, 80° C. Following the 7 days, XRPD analysis was performed on each sample to determine its form and crystallinity and HPLC analysis was conducted to determine the sample purity.

[2] = Competitive slurries of Form A and Form B (XRPD)
Protocol: Slurry experiments were performed at ambient, 40° C. and 60° C. temperatures using 2-propanol, tert-butyl methyl ether, toluene and ethanol as solvents.
(§1) Saturated solutions of 2-propanol, tert-butylmethyl ether, toluene and ethanol were prepared at ambient temperature. ca. 25 mg of Form A and Form B were weighed into a vial to create 50 mg 50:50 wt/wt mixture of the two batches. The appropriate solvent was added to the mixture and the resulting slurry was stirred for 48 h at ambient temperature, before the solid was analyzed by XRPD.
as §1, with “40° C.” for “ambient temperature.”, “40° C.,” for “ambient temperature,”
as §1, with “2-propanol,” for “2-propanol, tert-butylmethyl ether,”, “60° C.” for “ambient temperature.”, “60° C.,” for “ambient temperature,”

[3] = Solubility screen for Form A in organic solvents
Protocol: A solubility screen for Form A was conducted in 24 solvents. About 5 mg of Form A was placed in each of 24 vials and 5 volume aliquots of the appropriate solvent systems listed in Table 1 were added to the appropriate vial. Between each addition, the mixture was checked for dissolution by visual inspection, and if no dissolution was apparent, the mixture was heated to ca. 40° C. and checked again. This procedure was continued until dissolution was observed or until 100 volumes of solvent had been added.
Form A appeared to be highly soluble (above ˜100 mg/mL) in a number of solvents, […] diisopropyl ether, heptane and toluene. These solvents were identified as possible anti-solvents for the primary polymorph screen. Additional solvent/water mixtures suitable for freeze drying were tested.

[4] = Aqueous solubility (24 h mixing, filtrate by HPLC); details: thermodynamic from solid
Protocol: The aqueous solubility of several lots of Forms A and B were measured. […] The sample was filtered using a syringe filter and the filtrate was analyzed by HPLC to determine the solubility. The remaining solid was analysis by XRPD to determine its form and crystallinity. Solubility data for micronized materials was also collected. As noted in Table 3, slight variations in aqueous solubility were noted, particularly for the micronized samples.

Question: With CS(=O)(=O)c1ccc(Oc2cc(F)cc(C#N)c2)c2c1[C@H](O)C(F)(F)C2 [Form B, (S)-3-((2,2-difluoro-1-hydroxy-7-(methylsulfonyl)-2,3-dihydro-1H-inden-4-yl)oxy)-5-fluorobenzonitrile] as the molecule, how does the “Purity by HPLC after storage” value ([1]; 7 days at 80° C., drop from 99.7%) read?
Answer: 99.3%

Question: And the Crystallinity after storage ([1]; 7 days, over the three conditions (ambient, 40° C./75% RH, 80° C.))?
Answer: maintained crystallinity

Question: And the “Thermodynamic stability of the form (conclusion of competitive slurries)” value ([2]; all solvents, ambient, 40° C. and 60° C.)?
Answer: the most thermodynamically form

Question: What does the source list for CS(=O)(=O)c1ccc(Oc2cc(F)cc(C#N)c2)c2c1[C@H](O)C(F)(F)C2 [Form A, (S)-3-((2,2-difluoro-1-hydroxy-7-(methylsulfonyl)-2,3-dihydro-1H-inden-4-yl)oxy)-5-fluorobenzonitrile]?
Answer: solubility ([3]; 40 °C, organic solvent or mixture, thermodynamic from solid, 1,4-Dioxane, solubility observed at 40° C., read-out: Solubility): > 200 mg/mL; solubility ([3]; 40 °C, organic solvent or mixture, thermodynamic from solid, Acetonitrile, solubility observed at 40° C., read-out: Solubility): > 200 mg/mL; solubility ([3]; 40 °C, organic solvent or mixture, thermodynamic from solid, Diisopropyl ether, solubility observed at 40° C., read-out: Solubility): > 2 mg/mL; solubility ([3]; 40 °C, organic solvent or mixture, thermodynamic from solid, Methyl isobutyl ketone, solubility observed at 40° C., read-out: Solubility): 160 mg/mL (≈ 417 mM); Solubility in words ([3]; THF:Water (50%), separation into API-saturated THF layer and API-free aqueous layer observed): Sufficient solubility; solubility ([3]; aqueous with cosolvent or surfactant or cyclodextrin, thermodynamic from solid, Acetone: Water (60%), read-out: Solubility): < 2 mg/mL; solubility ([3]; aqueous with cosolvent or surfactant or cyclodextrin, thermodynamic from solid, Ethanol: Water (50%), read-out: Solubility): < 2 mg/mL; solubility ([3]; aqueous with cosolvent or surfactant or cyclodextrin, thermodynamic from solid, Methanol: Water (50%), read-out: Solubility): < 2 mg/mL; solubility ([3]; aqueous with cosolvent or surfactant or cyclodextrin, thermodynamic from solid, THF: Water (50%), read-out: Solubility): 100 mg/mL (≈ 261 mM); solubility ([3]; organic solvent or mixture, thermodynamic from solid, 2-Propanol, read-out: Solubility): 9 mg/mL (≈ 23.5 mM); solubility ([3]; organic solvent or mixture, thermodynamic from solid, Acetone: Water (5%), read-out: Solubility): > 200 mg/mL; solubility ([3]; organic solvent or mixture, thermodynamic from solid, Acetone: Water (20%), read-out: Solubility): > 200 mg/mL; solubility ([3]; organic solvent or mixture, thermodynamic from solid, Acetone, read-out: Solubility): > 200 mg/mL; solubility ([3]; organic solvent or mixture, thermodynamic from solid, Acetonitrile: Water (10%), read-out: Solubility): > 200 mg/mL; solubility ([3]; organic solvent or mixture, thermodynamic from solid, Dichloromethane, read-out: Solubility): 80 mg/mL (≈ 209 mM); solubility ([3]; organic solvent or mixture, thermodynamic from solid, Dimethylformamide, read-out: Solubility): > 200 mg/mL; solubility ([3]; organic solvent or mixture, thermodynamic from solid, Dimethylsulfoxide, read-out: Solubility): 160 mg/mL (≈ 417 mM); solubility ([3]; organic solvent or mixture, thermodynamic from solid, Ethanol, read-out: Solubility): 60 mg/mL (≈ 157 mM); solubility ([3]; organic solvent or mixture, thermodynamic from solid, Ethyl acetate, read-out: Solubility): 160 mg/mL (≈ 417 mM); solubility ([3]; organic solvent or mixture, thermodynamic from solid, Heptane, read-out: Solubility): < 2 mg/mL; solubility ([3]; organic solvent or mixture, thermodynamic from solid, Isopropyl acetate, read-out: Solubility): 90 mg/mL (≈ 235 mM); solubility ([3]; organic solvent or mixture, thermodynamic from solid, Methanol, read-out: Solubility): 90 mg/mL (≈ 235 mM); solubility ([3]; organic solvent or mixture, thermodynamic from solid, Methyl acetate, read-out: Solubility): > 200 mg/mL; solubility ([3]; organic solvent or mixture, thermodynamic from solid, Methylethyl ketone, read-out: Solubility): > 200 mg/mL; solubility ([3]; organic solvent or mixture, thermodynamic from solid, N-Methyl-2-pyrrolidone, read-out: Solubility): 130 mg/mL (≈ 339 mM); solubility ([3]; organic solvent or mixture, thermodynamic from solid, Tetrahydrofuran, read-out: Solubility): > 200 mg/mL; solubility ([3]; organic solvent or mixture, thermodynamic from solid, Toluene, read-out: Solubility): > 2 mg/mL; solubility ([3]; organic solvent or mixture, thermodynamic from solid, in a number of solvents, read-out: Solubility (highly soluble)): > 100 mg/mL; solubility ([3]; organic solvent or mixture, thermodynamic from solid, tert-Butylmethyl ether, read-out: Solubility): 35 mg/mL (≈ 91.3 mM); Solubility in words ([3]; water (hydrophobic behavior observed), diisopropyl ether, heptane and toluene): insoluble; solubility ([3]; water, thermodynamic from solid, Water, read-out: Solubility): < 2 mg/mL; Crystallinity after storage ([1]; 7 days at 80° C.): appeared to lose crystallinity; Form change by XRPD after storage ([1]; 7 days uncapped, ambient, 40° C./75% RH, 80° C.): no signs of form change; Purity by HPLC after storage ([1]; 7 days, over all three conditions (ambient, 40° C./75% RH, 80° C.)): 99.0%; solubility at 24 h ([4]; fassif, Fasted State Simulated Small Intestinal Fluid, read-out: Aqueous Solubility FaSSIF): 0.063 mg/mL (≈ 0.164 mM); solubility at 24 h ([4]; fessif, Fed State Simulated Small Intestinal Fluid, read-out: Aqueous Solubility FeSSIF): 0.086 mg/mL (≈ 0.224 mM); solubility at 24 h ([4]; pH 1.2, simulated gastric fluid, pH 1.2, read-out: Aqueous Solubility pH 1.2): 0.029 mg/mL (≈ 0.0756 mM); solubility at 24 h ([4]; pH 6.5, aqueous buffer, pH 6.5, read-out: Aqueous Solubility pH 6.5): 0.025 mg/mL (≈ 0.0652 mM); solubility at 24 h ([4]; pH 7.4, aqueous buffer, pH 7.4, read-out: Aqueous Solubility pH 7.4): 0.026 mg/mL (≈ 0.0678 mM)

Question: For CS(=O)(=O)c1ccc(Oc2cc(F)cc(C#N)c2)c2c1[C@H](O)C(F)(F)C2 (mixture of isomers) [50:50 wt/wt mixture, (S)-3-((2,2-difluoro-1-hydroxy-7-(methylsulfonyl)-2,3-dihydro-1H-inden-4-yl)oxy)-5-fluorobenzonitrile], which “Form by XRPD after competitive slurry” value ([2]; 2-Propanol, 40° C., 48 h) is on record?
Answer: Form B

Question: What about the “Form by XRPD after competitive slurry” value ([2]; 2-Propanol, 60° C., 48 h, footnote: Primarily Form B) of the same molecule?
Answer: Mixture^a

Question: And the “Form by XRPD after competitive slurry” value ([2]; 2-Propanol, Ambient, 48 h)?
Answer: Form B

Question: And the “Form by XRPD after competitive slurry” value ([2]; Ethanol, 40° C., 48 h)?
Answer: Form B

Question: What about the “Form by XRPD after competitive slurry” value ([2]; Ethanol, 60° C., 48 h, footnote: primarily Form A with some Form B present) of the same molecule?
Answer: Mixture^b

Question: And the “Form by XRPD after competitive slurry” value ([2]; Ethanol, Ambient, 48 h)?
Answer: Form B

Question: What about the “Form by XRPD after competitive slurry” value ([2]; Ethanol, Repeat 60° C., only Form B observed) of the same molecule?
Answer: Form B^b

Question: And the “Form by XRPD after competitive slurry” value ([2]; TBME, 40° C., 48 h)?
Answer: Form B

Question: And the “Form by XRPD after competitive slurry” value ([2]; TBME, Ambient, 48 h)?
Answer: Form B

Question: What about the “Form by XRPD after competitive slurry” value ([2]; Toluene, 40° C., 48 h) of the same molecule?
Answer: Form B

Question: What about the “Form by XRPD after competitive slurry” value ([2]; Toluene, 60° C., 48 h) of the same molecule?
Answer: Form B

Question: What about the “Form by XRPD after competitive slurry” value ([2]; Toluene, Ambient, 48 h) of the same molecule?
Answer: Form B
